Assay results published in patent US20260102420A1, “CANCER IMMUNOTHERAPY” (Hoffmann-La Roche Inc., priority 2022, published 2026).

What was measured:
UAP1 = molecular target: T1, UAP1 (Homo sapiens, UniProt Q16222); experiment: Detection of UDP-HexNAc by LC-MS in MKN45 cell lysates after 2h treatment; assay type: cell-based; conditions: MKN45 pre-treated for 2h, FIG. 9A
T1 construct: endogenous in cells; host or cells: MKN45 (human gastric adenocarcinoma cell line), wild type
Protocol: (§1) FIGS. 9A, 9B, 9C, 9D, and 9E. UAP1 inhibition with Ac4Glc2Bz in tumor cells improves T cell-mediated killing and T cell activation. FIG. 9A: Detection of UDP-HexNAc in MKN45 cell lysates after 2h treatment with Ac4Glc2Bz. FIGS. 9B and 9C: MKN45 were pre-treated with the indicated concentrations of Ac4Glc2Bz for 2 h. Afterwards, the compound was removed from the culture and T cells were added alongside TCBs at the indicated concentrations. Graphs show the % of remaining tumor cells after 105h from co-culture. DP47 TCB was used as negative control. FIGS. 9D and 9E: Flow cytometry of CD3+ T cells from the experiments in FIGS. 9B and 9C. T cell activation was assessed as previously described.
For the preparation of calibration samples Uridine-5′-diphospho-N-acetylglucosamine sodium salt was dissolved in an 80/20 mixture of water/methanol (v/v) to a concentration of 1.00 mg/ml. A stock solution for the preparation of QC samples was prepared separately using the same procedure with separate weighing of the reference substance. Further dilutions were done in water. For calibration and quality control samples, eight and three different concentrations of Uridine-5′-diphospho-N-acetylglucosamine (UDP HExNAc) spiked into phosphate-buffered saline (PBS) were used, respectively. Two different calibration ranges were applied. […]

CD3+ T cells = experiment: T cell activation (CD25/CD69) by flow cytometry after co-culture with pre-treated MKN45; assay type: cell-based, human; conditions: CD3+ T cells from the same co-cultures; FIGS. 9D and 9E
Protocol: as §1
T cell-mediated killing assay was performed as described above. At the end of the experiment, T cells were collected from the co-culture plates and subjected to immunofluorescence for the following markers: CD3, CD8, CD25, CD69 and Near-IR live/dead staining (Thermo Scientific). Cells were gated on live CD3^+ cells and % Activated cells was calculated as such: […]. For the proliferation assay, T cells were pre-stained with CFSE (Biolegend) according to manufacturer's instructions, and then used in a T cell-mediated killing assay with either MKN45-NLR wt or MKN45-NLR KO cells for 4 days. Afterwards, cells were harvested and CFSE was assessed by FACS. […]

MKN45 = experiment: T cell-mediated killing assay, MKN45 pre-treated with compound, co-culture with T cells and TCBs; assay type: cell-based, human; conditions: MKN45 pre-treated 2 h, compound removed, T cells and TCBs added; FIGS. 9B and 9C
Protocol: as §1
25000 MKN45-nuclight red (NLR), 20000 A549-hCEA and 10000 B16F10-NLR tumor cells (wt or UAP1 ko) were seeded in one well of a 96 well-plate. Afterwards TCBs or siinfekl were given at the indicated concentrations. Pan T cells or PBMCs, mouse splenocytes (from C57/BL6 or OT-I mice) were immediately added at the indicated E:T ratios. Co-cultures were incubated at 37° C. and 5% C02 in the Incucye S3 instrument (Sartorius) for the indicated time. […] For MKN45-NLR and B16F10-NLR, T cell-mediated killing was calculated based on the red fluorescent signal coming from the tumor cells. All values were first transformed to fold-change to time 0, and % specific lysis was calculated as follows: […]

T1 sequence (Q16222 whole entry): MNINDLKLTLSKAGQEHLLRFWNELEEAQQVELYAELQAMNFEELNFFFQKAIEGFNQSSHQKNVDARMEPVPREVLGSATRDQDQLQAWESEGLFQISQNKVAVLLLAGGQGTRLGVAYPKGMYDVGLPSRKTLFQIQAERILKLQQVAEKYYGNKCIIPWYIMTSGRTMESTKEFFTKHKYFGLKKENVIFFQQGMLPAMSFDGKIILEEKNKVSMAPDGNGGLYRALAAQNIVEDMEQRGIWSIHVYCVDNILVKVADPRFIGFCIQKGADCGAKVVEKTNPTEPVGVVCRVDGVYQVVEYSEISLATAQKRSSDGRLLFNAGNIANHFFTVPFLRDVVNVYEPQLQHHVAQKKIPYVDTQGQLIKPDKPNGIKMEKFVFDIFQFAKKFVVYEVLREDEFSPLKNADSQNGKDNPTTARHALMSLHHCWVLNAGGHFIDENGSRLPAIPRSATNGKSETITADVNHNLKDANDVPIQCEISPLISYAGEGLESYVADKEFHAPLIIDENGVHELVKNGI

## CC(=O)OCC1OC(OC(C)=O)C(NC(=O)c2ccccc2)C(OC(C)=O)[C@@H]1OC(C)=O (stereo partly drawn) [Ac4Glc2Bz]
UAP1
  inhibition of UAP1 (UDP-HexNAc detection): dose-dependent inhibition of UAP1
CD3+ T cells
  T cell activation: increased
MKN45
  T cell mediated killing: increased T cell mediated killing
